Assay results published in PubChem BioAssay (NCI).
“And” between values parts separate entries of the source, which are not always exact repeats. Equal entries are not always repeated.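 Following 48 hours of exposure in 96-well plates, responses at five concentrations were used to interpolate endpoints linearly. GI50 = concentration required for 50% inhibition of growth. TGI: total growth inhibition.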

Tests used:
Assay in all cases: growth of human tumour cells (NCI), 48 h
[1] = test system: 786-0 renal
[2] = test system: CAKI-1 renal
[3] = test system: HCT-15 colon
[4] = test system: K-562 leukemia
[5] = test system: KM12 colon
[6] = test system: LOX IMVI melanoma
[7] = test system: MOLT-4 leukemia
[8] = test system: SK-OV-3 ovarian
[9] = test system: SF-268 CNS
[10] = test system: PC-3 prostate

COc1ccc(C(=O)C2CCC(C(=O)O)C2)cc1 (stereo not given)
TGI [1]: > 100 µM | TGI [2]: > 100 µM | TGI [3]: > 100 µM | TGI [4]: > 100 µM | TGI [5]: > 100 µM | TGI [6]: > 100 µM | TGI [7]: > 100 µM | TGI [8]: > 100 µM

CCOC(=O)C12CCCC1(O)N(NC(=O)OC)C(C)=C2C(=O)OC (stereo not given)
TGI [1]: 92.2 µM | TGI [2]: > 100 µM | TGI [3]: > 100 µM | TGI [4]: > 100 µM | TGI [5]: > 10 µM | TGI [6]: > 100 µM | TGI [7]: > 100 µM | TGI [9]: > 100 µM | TGI [8]: > 100 µM

CC1SC(c2ccccc2Cl)N(NC(=O)C(O)c2ccccc2)C1=O (stereo not given)
GI50 [1]: > 100 µM | TGI [1]: > 100 µM | GI50 [2]: 44.6 µM | TGI [2]: > 100 µM | GI50 [3]: 66.9 µM | TGI [3]: > 100 µM | GI50 [4]: 58500 nM | TGI [4]: > 100 µM | GI50 [5]: > 100 µM | TGI [5]: > 100 µM | GI50 [6]: > 100 µM | TGI [6]: > 100 µM | GI50 [7]: 50.4 µM | TGI [7]: > 100 µM | GI50 [10]: 45600 nM | TGI [10]: > 100 µM | GI50 [9]: > 100 µM | TGI [9]: > 100 µM

[N-]=[N+]=NCN1C(=O)C2C3C=CC(C2C1=O)C1C2C(=O)N(CN=[N+]=[N-])C(=O)C2C31 (stereo not given)
TGI [1]: > 100 µM | TGI [2]: > 100 µM | TGI [3]: > 100 µM | TGI [4]: > 100 µM | TGI [5]: > 100 µM | TGI [6]: > 100 µM | TGI [10]: > 100 µM | TGI [9]: > 100 µM

O=C1Nc2c(Cl)cc(Cl)cc2/C1=N/N=C/c1ccco1
TGI [1]: > 100 µM | TGI [2]: 72.8 µM | TGI [3]: > 100 µM | TGI [4]: > 100 µM | TGI [5]: > 100 µM | TGI [6]: 35 µM | TGI [7]: > 100 µM | TGI [10]: > 100 µM | TGI [8]: > 100 µM

COC(=O)CCC(=O)Nc1ccc(Cl)cc1C
TGI [1]: > 100 µM | TGI [2]: > 100 µM | TGI [3]: > 100 µM | TGI [4]: > 100 µM | TGI [5]: > 100 µM | TGI [6]: > 100 µM | TGI [7]: > 100 µM | TGI [9]: > 100 µM | TGI [8]: > 100 µM

C(=N\Nc1ncc(-c2cc3cc4c(cc3o2)OCO4)s1)/c1ccco1
GI50 [1]: 1.97 µM | TGI [1]: 4.94 µM | GI50 [2]: 0.854 µM | TGI [2]: 6.69 µM | GI50 [4]: 2100 nM | TGI [4]: > 100 µM | GI50 [5]: 1.85 µM | TGI [5]: 5.14 µM | GI50 [6]: 1.35 µM | TGI [6]: 2.76 µM | GI50 [7]: 0.946 µM | TGI [7]: 14.5 µM | GI50 [10]: 1790 nM | TGI [10]: 12.4 µM | GI50 [9]: 2.67 µM | TGI [9]: 23.1 µM

O=C1c2ccccc2C(=O)N1CCc1ncc(-c2ccccc2)[nH]1
TGI [1]: > 100 µM | TGI [2]: > 100 µM | TGI [3]: > 100 µM | TGI [4]: > 100 µM | TGI [5]: > 100 µM | TGI [7]: > 100 µM | TGI [10]: > 100 µM | TGI [9]: > 100 µM | TGI [8]: > 100 µM

C=C(C)[C@@H]1CC[C@]2(CO)CC[C@]3(C)[C@H](CC[C@@H]4[C@@]5(C)CCCNC(C)(C)[C@@H]5CC[C@]43C)[C@@H]12
GI50 [1]: 1.62 µM | TGI [1]: 3.16 µM | GI50 [2]: 1.55 µM | TGI [2]: 2.89 µM | GI50 [3]: 1.39 µM | TGI [3]: 2.77 µM | GI50 [4]: 1080 nM | TGI [4]: 3.79 µM | GI50 [5]: 1.73 µM | TGI [5]: 3.24 µM | GI50 [7]: 1.79 µM | TGI [7]: 4.5 µM | GI50 [10]: 1510 nM | TGI [10]: 2.94 µM | GI50 [9]: 1.74 µM | TGI [9]: 3.54 µM | GI50 [8]: 1.83 µM | TGI [8]: 3.49 µM

CN(C)c1ccc(/C=c2\sc3nnc(-c4ccco4)n3c2=O)cc1
TGI [1]: > 100 µM | TGI [2]: > 100 µM | TGI [4]: > 100 µM | TGI [5]: > 100 µM | TGI [6]: > 100 µM | TGI [7]: > 100 µM | TGI [9]: > 100 µM | TGI [8]: > 100 µM

COc1ccc(/C=C/c2cc(OC)c(OC(C)=O)c(OC)c2)cc1
TGI [1]: > 100 µM | TGI [3]: 80.6 µM | TGI [7]: 95.9 µM | TGI [9]: > 100 µM | TGI [8]: > 100 µM

c1ccc(SC(Sc2ccccc2)=C2CCC2)cc1
TGI [1]: > 100 µM | TGI [2]: > 100 µM | TGI [3]: > 100 µM | TGI [4]: > 100 µM | TGI [5]: > 100 µM | TGI [6]: > 100 µM | TGI [7]: > 100 µM | TGI [9]: > 100 µM | TGI [8]: > 100 µM

Oc1ccccc1-c1nn(CNc2ccc(Cl)cc2)c(=S)o1
GI50 [1]: > 100 µM | TGI [1]: > 100 µM | GI50 [2]: 3.71 µM | TGI [2]: > 100 µM | GI50 [3]: 20 µM | TGI [3]: 45.4 µM | GI50 [4]: 263 nM | TGI [4]: > 100 µM | GI50 [5]: 11.7 µM | TGI [5]: > 100 µM | GI50 [7]: 20.7 µM | TGI [7]: 74 µM | GI50 [10]: > 100000 nM | TGI [10]: > 100 µM | GI50 [9]: 9.2 µM | TGI [9]: > 100 µM | GI50 [8]: > 100 µM | TGI [8]: > 100 µM

O=C1c2ccccc2-c2c3c(cc4ccnc1c24)OCO3
TGI [1]: 27.2 µM and > 100 µM | TGI [2]: 28.1 µM and 15.5 µM | TGI [3]: 68.3 µM and > 100 µM | TGI [4]: > 100 µM and 15 µM | TGI [5]: > 100 µM | TGI [6]: 58.4 µM and 15 µM | TGI [7]: 15.6 µM and > 100 µM | TGI [9]: 47.1 µM and > 100 µM | TGI [8]: 84.4 µM and > 100 µM

CC(Oc1ccc2c(-c3ccc(Cl)cc3)cc(=O)oc2c1)C(=O)O (stereo not given)
TGI [1]: > 100 µM | TGI [2]: > 100 µM | TGI [4]: > 100 µM | TGI [5]: > 100 µM | TGI [6]: > 100 µM | TGI [7]: > 100 µM | TGI [9]: > 100 µM | TGI [8]: > 100 µM

CSC(=NC(=O)c1ccccc1Cl)SCCSC(=NC(=O)c1ccccc1Cl)SC
TGI [1]: > 100 µM | TGI [2]: > 100 µM | TGI [3]: > 100 µM | TGI [4]: > 100 µM | TGI [5]: > 100 µM | TGI [6]: > 100 µM | TGI [7]: > 100 µM | TGI [9]: > 100 µM

CCN(CC)CCN(CC)CC.CCN(CC)CCN(CC)CC.[Cu+2].[Cu+2].[O-][Cl+3]([O-])([O-])[O-].[OH3+].[OH3+]
GI50 [1]: 46 µM | TGI [1]: > 100 µM | GI50 [2]: > 100 µM | TGI [2]: > 100 µM | GI50 [4]: 53100 nM | TGI [4]: > 100 µM | GI50 [5]: 18.2 µM | TGI [5]: 34.2 µM | GI50 [6]: 14.4 µM | TGI [6]: 45.7 µM | GI50 [7]: 91.4 µM | TGI [7]: > 100 µM | GI50 [9]: 23.9 µM | TGI [9]: 50.3 µM | GI50 [8]: 13.9 µM | TGI [8]: 27.3 µM

Cc1ccc(NCC2(/N=C/c3ccccc3)OC(CO)C(O)C2O)cc1 (stereo not given)
TGI [1]: > 100 µM | TGI [2]: > 100 µM | TGI [3]: > 100 µM | TGI [4]: > 100 µM | TGI [5]: > 100 µM | TGI [7]: > 100 µM | TGI [9]: > 100 µM

CCC[CH2][Sn](=[O])[CH2]CCC
GI50 [1]: > 50 µM | TGI [1]: > 50 µM | GI50 [2]: > 35.1 µM | TGI [2]: > 50 µM | GI50 [3]: > 50 µM | TGI [3]: > 50 µM | GI50 [4]: > 50000 nM | TGI [4]: > 50 µM | GI50 [5]: > 50 µM | TGI [5]: > 50 µM | GI50 [6]: > 50 µM | TGI [6]: > 50 µM | GI50 [7]: > 50 µM | TGI [7]: > 50 µM | GI50 [9]: > 50 µM | TGI [9]: > 50 µM | GI50 [8]: > 50 µM | TGI [8]: > 50 µM
